From patent US20250230193A1, “CYCLIC COMPOUND HAVING SELECTIVE KRAS INHIBITORY EFFECT ON HRAS AND NRAS” (CHUGAI SEIYAKU KABUSHIKI KAISHA, priority 2022, published 2025)

Tests used:
[1] = molecular target: GDP-bound NRAS wild-type protein (Homo sapiens, UniProt P01111); experiment: Binding to NRAS by surface plasmon resonance (SPR), Single Cycle Kinetics; details: SPR; KD ratio class
[2] = molecular target: GDP-bound HRAS wild-type protein (Homo sapiens, UniProt P01112); experiment: Binding to HRAS by surface plasmon resonance (SPR), Single Cycle Kinetics; details: SPR; KD ratio class
Chain of GDP-bound HRAS wild-type protein (P01112 whole entry): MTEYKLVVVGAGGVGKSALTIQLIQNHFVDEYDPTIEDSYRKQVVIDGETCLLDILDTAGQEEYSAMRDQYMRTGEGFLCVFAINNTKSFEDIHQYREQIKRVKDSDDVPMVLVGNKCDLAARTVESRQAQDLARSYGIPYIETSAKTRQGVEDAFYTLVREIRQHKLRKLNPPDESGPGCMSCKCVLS

[3] = system: human lung cancer strain NCI-H441; experiment: cells; details: NCI-H441, 96 h, read-out: NCI-H441 IC50 (nM)

Chain of GDP-bound NRAS wild-type protein (P01111 whole entry): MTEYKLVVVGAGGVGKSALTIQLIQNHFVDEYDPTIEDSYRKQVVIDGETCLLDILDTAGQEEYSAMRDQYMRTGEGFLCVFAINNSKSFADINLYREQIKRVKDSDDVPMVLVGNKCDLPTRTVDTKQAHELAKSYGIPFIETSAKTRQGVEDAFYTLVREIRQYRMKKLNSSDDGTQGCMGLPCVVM

| Structure (SMILES) | NRAS/KRAS (ratio of KD value for GDP-bound NRAS wild-type protein to KD value for KRAS) [1] | HRAS/KRAS (ratio of KD value for GDP-bound HRAS wild-type protein to KD value for KRAS) [2] | IC50 [3] |
| --- | --- | --- | --- |
| CCO[C@@H]1C[C@H]2C(=O)NC3(CCC3)C(=O)N(C)[C@@H](C3CCCC3)C(=O)N(C)[C@H](C(=O)N3CCOCC3)CC(=O)N(C)[C@@H](CC(C)C)C(=O)N[C@@H]([C@@H](C)CC)C(=O)N3CC[C@H]3C(=O)N(C)[C@H]3CC[C@@H](C)CN(C3=O)[C@@H](Cc3ccc(C(F)(F)F)cc3)C(=O)N(C)CC(=O)N[C@@H](CCc3cc(F)c(C(F)(F)F)c(F)c3)C(=O)N2C1 [PP1373] | B (a compound having 3 or more and less than 10 is denoted as B) | B (a compound having 3 or more and less than 10 is denoted as B) | 12.2 nM |
| CCCCCC[C@H]1C(=O)N[C@@H]([C@@H](C)CC)C(=O)N(C)CC(=O)N(C)[C@H]2C/C=C\CCN(C2=O)[C@@H](Cc2ccc(C(F)(F)F)cc2)C(=O)N(C)CC(=O)N[C@@H](CCc2ccc(Cl)c(Cl)c2)C(=O)N2C[C@H](OCC)C[C@H]2C(=O)NC2(CCC2)C(=O)N(C)[C@@H](C2CCCC2)C(=O)N(C)[C@H](C(=O)N(C)C)CC(=O)N1C [PP1252] | AA (a compound having 20 or more is denoted as AA) | A (a compound having 10 or more and less than 20 is denoted as A) | 51.2 nM |
| CCO[C@@H]1C[C@H]2C(=O)NC3(CCC3)C(=O)N(C)[C@@H](C3CCCC3)C(=O)N(C)[C@H](C(=O)N(C)C)CC(=O)N(C)[C@@H](CC3CCCC3)C(=O)N[C@@H]([C@@H](C)CC)C(=O)N(C)CC(=O)N(C)[C@H]3C/C=C\CCN(C3=O)[C@@H](Cc3ccc(C)cc3)C(=O)N(C)CC(=O)N[C@@H](CCc3cc(F)c(Cl)c(F)c3)C(=O)N2C1 [PP1486] | A (a compound having 10 or more and less than 20 is denoted as A) | A (a compound having 10 or more and less than 20 is denoted as A) | 15 nM |
| CC[C@H](C)[C@@H]1NC(=O)[C@H](CC2CCCC2)N(C)C(=O)C[C@@H](C(=O)N(C)C)N(C)C(=O)[C@H](C2CCCC2)N(C)C(=O)C2(CCC2)NC(=O)[C@@H]2C[C@@H](F)CN2C(=O)[C@H](CCc2cc(F)c(C(F)(F)F)c(F)c2)NC(=O)CN(C)C(=O)[C@H](Cc2ccc(C(F)(F)F)cc2)N2CC/C=C\C[C@@H](C2=O)N(C)C(=O)CN(C)C1=O [PP1502] | A (a compound having 10 or more and less than 20 is denoted as A) | A (a compound having 10 or more and less than 20 is denoted as A) | 2 nM |
| CCO[C@@H]1C[C@H]2C(=O)NC3(CCC3)C(=O)N(C)[C@@H](C(CC)CC)C(=O)N(C)[C@H](C)CC(=O)N(C)[C@@H](CC3CCCC3)C(=O)N[C@@H]([C@@H](C)CC)C(=O)N(C)CC(=O)N(C)[C@H]3C/C=C\CCN(C3=O)[C@@H](Cc3ccc(F)cc3C)C(=O)N(C)CC(=O)N[C@@H](CCc3cc(F)c(C(F)(F)F)c(F)c3)C(=O)N2C1 [PP1522] | A (a compound having 10 or more and less than 20 is denoted as A) | A (a compound having 10 or more and less than 20 is denoted as A) | 567 nM |
| CCCOC[C@H]1C(=O)N[C@@H]([C@@H](C)CC)C(=O)N(C)CC(=O)N(C)[C@H]2C/C=C\CCN(C2=O)[C@@H](Cc2ccc(C(F)(F)F)cc2)C(=O)N(C)CC(=O)N[C@@H](CCc2cc(F)c(C(F)(F)F)c(F)c2)C(=O)N2C[C@H](OCC)C[C@H]2C(=O)NC2(CCCC2)C(=O)N(C)[C@@H](C2CCCC2)C(=O)N(C)[C@H](C(=O)N2CCCC2)CC(=O)N1C [PP1399] | A (a compound having 10 or more and less than 20 is denoted as A) | A (a compound having 10 or more and less than 20 is denoted as A) | 18.8 nM |
| CCO[C@@H]1C[C@H]2C(=O)NC3(CCC3)C(=O)N(C)[C@@H](C3CCCC3)C(=O)N(C)[C@H](C(=O)N3CCOCC3)CC(=O)N(C)[C@@H](CC3CCC3)C(=O)N[C@@H]([C@@H](C)CC)C(=O)N(C)CC(=O)N(C)[C@H]3C/C=C\CCN(C3=O)[C@@H](Cc3ccc(C)cc3)C(=O)N(C)CC(=O)N[C@@H](CCc3cc(F)c(C(F)(F)F)c(F)c3)C(=O)N2C1 [PP1424] | A (a compound having 10 or more and less than 20 is denoted as A) | A (a compound having 10 or more and less than 20 is denoted as A) | 26.3 nM |
| CC[C@H](C)[C@@H]1NC(=O)[C@H](CC)N(C)C(=O)C[C@@H](C(=O)N(C)C)N(C)C(=O)[C@H](C2CCCC2)N(C)C(=O)C2(CCC2)NC(=O)[C@@H]2C[C@@H](C(F)(F)F)CN2C(=O)[C@H](CCc2cc(F)c(C(F)(F)F)c(F)c2)NC(=O)CN(C)C(=O)[C@H](CC2CCCCC2)N2CC/C=C\C[C@@H](C2=O)N(C)C(=O)CN(C)C1=O [PP1465] | A (a compound having 10 or more and less than 20 is denoted as A) | A (a compound having 10 or more and less than 20 is denoted as A) | 34.1 nM |
| CCO[C@@H]1C[C@H]2C(=O)NC3(CCC3)C(=O)N(C)[C@@H](C(CC)CC)C(=O)N(C)[C@H](C(=O)N(C)C)CC(=O)N(C)[C@@H](CC)C(=O)N[C@@H]([C@@H](C)CC)C(=O)N(C)CC(=O)N(C)[C@H]3C/C=C\CCN(C3=O)[C@@H](Cc3ccc(C(F)(F)F)cc3)C(=O)N(C)CC(=O)N[C@@H](CCc3cc(F)c(Cl)c(F)c3)C(=O)N2C1 [PP1230] | A (a compound having 10 or more and less than 20 is denoted as A) | A (a compound having 10 or more and less than 20 is denoted as A) | 110 nM |
| CC[C@H](C)[C@@H]1NC(=O)[C@H](CC2CC2)N(C)C(=O)C[C@@H](C(=O)N2CCOCC2)N(C)C(=O)[C@H](C2CCCC2)N(C)C(=O)C2(CCCC2)NC(=O)[C@@H]2CCCN2C(=O)[C@H](CCc2ccc(C(F)(F)F)c(Cl)c2)NC(=O)CN(C)C(=O)[C@H](Cc2ccc(C(F)(F)F)cc2)N2C[C@H](C)CC[C@@H](C2=O)N(C)C(=O)CN(C)C1=O [PP1343] | A (a compound having 10 or more and less than 20 is denoted as A) | B (a compound having 3 or more and less than 10 is denoted as B) | 19.3 nM |
| CCO[C@@H]1C[C@H]2C(=O)NC3(CCC3)C(=O)N(C)[C@@H](C(CC)CC)C(=O)N(C)[C@H](C(=O)N(C)C)CC(=O)N(C)[C@@H](CC3CCCC3)C(=O)N[C@@H]([C@@H](C)CC)C(=O)N(C)CC(=O)N(C)[C@H]3C/C=C\CCN(C3=O)[C@@H](Cc3ccc(F)cc3)C(=O)N(C)CC(=O)N[C@@H](CCc3cc(F)c(C(F)(F)F)c(F)c3)C(=O)N2C1 [PP1517] | A (a compound having 10 or more and less than 20 is denoted as A) | A (a compound having 10 or more and less than 20 is denoted as A) | 33.6 nM |
| CCO[C@@H]1C[C@H]2C(=O)NC3(CCC3)C(=O)N(C)[C@@H](C3CCCC3)C(=O)N(C)[C@H](C(=O)N3CCCC3)CC(=O)N(C)[C@@H](CC3CC3)C(=O)N[C@@H]([C@@H](C)CC)C(=O)N(C)CC(=O)N(C)[C@H]3C/C=C\CCN(C3=O)[C@@H](Cc3ccc(C)cc3)C(=O)N(C)CC(=O)N[C@@H](CCc3cc(F)c(C(F)(F)F)c(F)c3)C(=O)N2C1 [PP1409] | A (a compound having 10 or more and less than 20 is denoted as A) | A (a compound having 10 or more and less than 20 is denoted as A) | 43.5 nM |
| CCO[C@@H]1C[C@H]2C(=O)NC3(CC(C)(C)C3)C(=O)N(C)[C@@H](C3CCCC3)C(=O)N(C)[C@H](C(C)C)CC(=O)N(C)[C@@H](CC)C(=O)N[C@@H]([C@@H](C)CC)C(=O)N(C)CC(=O)N(C)[C@H]3C/C=C\CCN(C3=O)[C@@H](Cc3ccc(C(F)(F)F)cc3)C(=O)N(C)CC(=O)N[C@@H](CCc3cc(F)c(C(F)(F)F)c(F)c3)C(=O)N2C1 [PP1588] | B (a compound having 3 or more and less than 10 is denoted as B) | B (a compound having 3 or more and less than 10 is denoted as B) | 24.2 nM |
| CCO[C@@H]1C[C@H]2C(=O)NC3(CCC3)C(=O)N(C)[C@@H](C(CC)CC)C(=O)N(C)[C@H](C(=O)N3CCCC3)CC(=O)N(C)[C@@H](C)C(=O)N[C@@H]([C@@H](C)CC)C(=O)N(C)CC(=O)N(C)[C@H]3C/C=C\CCN(C3=O)[C@@H](CC3CCC(F)(F)CC3)C(=O)N(C)CC(=O)N[C@@H](CCc3cc(F)c(C(F)(F)F)c(F)c3)C(=O)N2C1 [PP1436] | AA (a compound having 20 or more is denoted as AA) | A (a compound having 10 or more and less than 20 is denoted as A) | 47.4 nM |
